Results published in patent publication US20070010671A1, “Novel quinazoline derivatives and methods of treatment related to the use thereof” (priority 2003, published 2007).

These compounds were tested against MCH receptor (Homo sapiens, UniProt Q99705) (assay: High throughput functional screening FLIPR/FDSS6000: inhibition of MCH-evoked intracellular Ca2+ changes). Conditions: class by percent of control at 10^-7 M or IC50.
Format: cell-based
Method in brief: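 Constitutively active non-endogenous MCH-R cells; Fluo4-AM 4 μM, 2.5 mM probenecid, 1 hr, 37° C; cpd 3 min, 37° C; MCH 50 nM (antagonist mode); kinetic Ca2+ read Ex488/Em530, 290 s.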

Row | SMILES | class
1 | CSc1ccccc1NC(=O)NC[C@H]1CC[C@@H](Nc2nc(N(C)C)c3ccccc3n2)CC1 [compound 471, N-[(cis-4-{[4-(dimethylamino)quinazolin-2-yl]amino}cyclohexyl)methyl]-N′-[2-(methylthio)phenyl]urea] | 2 (Class 2: The value of percent of control at 10^−7 M was from 40% to 60% or the value of IC50 was from 50 nM to 200 nM.)
2 | CN(C)c1nc(N[C@H]2CC[C@@H](CNC(=O)Nc3c(Cl)c(Cl)cc(Cl)c3Cl)CC2)nc2ccccc12 [compound 472, N-[(cis-4-{[4-(dimethylamino)quinazolin-2-yl]amino}cyclohexyl)methyl]-N′-(2,3,5,6-tetrachlorophenyl)urea] | 2 (Class 2: The value of percent of control at 10^−7 M was from 40% to 60% or the value of IC50 was from 50 nM to 200 nM.)
3 | Cc1ccc([N+](=O)[O-])c(NC(=O)NC[C@H]2CC[C@@H](Nc3nc(N(C)C)c4ccccc4n3)CC2)c1C [compound 473] | 1 (Class 1: The value of percent of control at 10^−7 M was less than 40% or the value of IC50 was less than 50 nM.)
4 | CN(C)c1nc(N[C@H]2CC[C@@H](CNC(=O)Nc3cc(Cl)c(Cl)cc3Cl)CC2)nc2ccccc12 [compound 474] | 3 (Class 3: The value of percent of control at 10^−7 M was more than 60% or the value of IC50 was more than 200 nM.)
5 | CN(C)c1nc(N[C@H]2CC[C@@H](CNC(=O)Nc3c(F)cc(Br)cc3Br)CC2)nc2ccccc12 [compound 476, N-(2,4-dibromo-6-fluorophenyl)-N′-[(cis-4-{[4-(dimethylamino)quinazolin-2-yl]amino}cyclohexyl)methyl]urea] | 1 (Class 1: The value of percent of control at 10^−7 M was less than 40% or the value of IC50 was less than 50 nM.)
6 | CN(C)c1nc(N[C@H]2CC[C@@H](CNC(=O)Nc3ccc(Br)cc3Br)CC2)nc2ccccc12 [compound 477] | 3 (Class 3: The value of percent of control at 10^−7 M was more than 60% or the value of IC50 was more than 200 nM.)
7 | CN(C)c1nc(N[C@H]2CC[C@@H](CNC(=O)NCc3ccc(Cl)cc3Cl)CC2)nc2ccccc12 [compound 478, N-(2,4-dichlorobenzyl)-N′-[(cis-4-{[4-(dimethylamino)quinazolin-2-yl]amino}cyclohexyl)methyl]urea] | 2 (Class 2: The value of percent of control at 10^−7 M was from 40% to 60% or the value of IC50 was from 50 nM to 200 nM.)
8 | COc1ccc(NC(=O)NC[C@H]2CC[C@@H](Nc3nc(N(C)C)c4ccccc4n3)CC2)c(OC)c1 [compound 479] | 3 (Class 3: The value of percent of control at 10^−7 M was more than 60% or the value of IC50 was more than 200 nM.)
9 | Cc1ccc(C)c(NC(=O)NC[C@H]2CC[C@@H](Nc3nc(N(C)C)c4ccccc4n3)CC2)c1 [compound 481] | 3 (Class 3: The value of percent of control at 10^−7 M was more than 60% or the value of IC50 was more than 200 nM.)
10 | CN(C)c1nc(N[C@H]2CC[C@@H](CNC(=O)Nc3c(Br)cc(F)cc3Br)CC2)nc2ccccc12 [compound 482, N-(2,6-dibromo-4-fluorophenyl)-N′-[(cis-4-{[4-(dimethylamino)quinazolin-2-yl]amino}cyclohexyl)methyl]urea] | 1 (Class 1: The value of percent of control at 10^−7 M was less than 40% or the value of IC50 was less than 50 nM.)
11 | CN(C)c1nc(N[C@H]2CC[C@@H](CNC(=O)Nc3c(Cl)cccc3Cl)CC2)nc2ccccc12 [compound 483, N-(2,6-dichlorophenyl)-N′-[(cis-4-{[4-(dimethylamino)quinazolin-2-yl]amino}cyclohexyl)methyl]urea] | 1 (Class 1: The value of percent of control at 10^−7 M was less than 40% or the value of IC50 was less than 50 nM.)
12 | CCc1cccc(CC)c1NC(=O)NC[C@H]1CC[C@@H](Nc2nc(N(C)C)c3ccccc3n2)CC1 [compound 484, N-(2,6-diethylphenyl)-N′-[(cis-4-{[4-(dimethylamino)quinazolin-2-yl]amino}cyclohexyl)methyl]urea] | 1 (Class 1: The value of percent of control at 10^−7 M was less than 40% or the value of IC50 was less than 50 nM.)
13 | CN(C)c1nc(N[C@H]2CC[C@@H](CNC(=O)Nc3ccccc3Cc3ccccc3)CC2)nc2ccccc12 [compound 485] | 3 (Class 3: The value of percent of control at 10^−7 M was more than 60% or the value of IC50 was more than 200 nM.)
14 | Cc1ccc(Cl)c(NC(=O)NC[C@H]2CC[C@@H](Nc3nc(N(C)C)c4ccccc4n3)CC2)c1 [compound 486] | 2 (Class 2: The value of percent of control at 10^−7 M was from 40% to 60% or the value of IC50 was from 50 nM to 200 nM.)
15 | CN(C)c1nc(N[C@H]2CC[C@@H](CNC(=O)Nc3cc([N+](=O)[O-])ccc3Cl)CC2)nc2ccccc12 [compound 487] | 3 (Class 3: The value of percent of control at 10^−7 M was more than 60% or the value of IC50 was more than 200 nM.)
16 | CN(C)c1nc(N[C@H]2CC[C@@H](CNC(=O)Nc3c(Cl)cccc3C(F)(F)F)CC2)nc2ccccc12 [compound 488] | 1 (Class 1: The value of percent of control at 10^−7 M was less than 40% or the value of IC50 was less than 50 nM.)

Row | SMILES | class
17 | Cc1cccc(Cl)c1NC(=O)NC[C@H]1CC[C@@H](Nc2nc(N(C)C)c3ccccc3n2)CC1 [compound 489] | 1 (Class 1: The value of percent of control at 10^−7 M was less than 40% or the value of IC50 was less than 50 nM.)
18 | CN(C)c1nc(N[C@H]2CC[C@@H](CNC(=O)NCc3ccccc3Cl)CC2)nc2ccccc12 [compound 490, N-(2-chlorobenzyl)-N′-[(cis-4-{[4-(dimethylamino)quinazolin-2-yl]amino}cyclohexyl)methyl]urea] | 1 (Class 1: The value of percent of control at 10^−7 M was less than 40% or the value of IC50 was less than 50 nM.)
19 | CCOC(=O)c1ccccc1NC(=O)NC[C@H]1CC[C@@H](Nc2nc(N(C)C)c3ccccc3n2)CC1 [compound 491] | 3 (Class 3: The value of percent of control at 10^−7 M was more than 60% or the value of IC50 was more than 200 nM.)
20 | CCc1cccc(C(C)C)c1NC(=O)NC[C@H]1CC[C@@H](Nc2nc(N(C)C)c3ccccc3n2)CC1 [compound 493, N-[(cis-4-{[4-(dimethylamino)quinazolin-2-yl]amino}cyclohexyl)methyl]-N′-(2-ethyl-6-isopropylphenyl)urea] | 1 (Class 1: The value of percent of control at 10^−7 M was less than 40% or the value of IC50 was less than 50 nM.)
21 | CCc1ccccc1NC(=O)NC[C@H]1CC[C@@H](Nc2nc(N(C)C)c3ccccc3n2)CC1 [compound 494, N-[(cis-4-{[4-(dimethylamino)quinazolin-2-yl]amino}cyclohexyl)methyl]-N′-(2-ethylphenyl)urea] | 1 (Class 1: The value of percent of control at 10^−7 M was less than 40% or the value of IC50 was less than 50 nM.)
22 | CN(C)c1nc(N[C@H]2CC[C@@H](CNC(=O)Nc3cccc(C(F)(F)F)c3F)CC2)nc2ccccc12 [compound 495] | 3 (Class 3: The value of percent of control at 10^−7 M was more than 60% or the value of IC50 was more than 200 nM.)
23 | CN(C)c1nc(N[C@H]2CC[C@@H](CNC(=O)Nc3cc(C(F)(F)F)ccc3F)CC2)nc2ccccc12 [compound 496] | 3 (Class 3: The value of percent of control at 10^−7 M was more than 60% or the value of IC50 was more than 200 nM.)
24 | Cc1ccc(F)c(NC(=O)NC[C@H]2CC[C@@H](Nc3nc(N(C)C)c4ccccc4n3)CC2)c1 [compound 497] | 3 (Class 3: The value of percent of control at 10^−7 M was more than 60% or the value of IC50 was more than 200 nM.)
25 | CN(C)c1nc(N[C@H]2CC[C@@H](CNC(=O)Nc3cc([N+](=O)[O-])ccc3F)CC2)nc2ccccc12 [compound 498, N-[(cis-4-{[4-(dimethylamino)quinazolin-2-yl]amino}cyclohexyl)methyl]-N′-(2-fluoro-5-nitrophenyl)urea] | 2 (Class 2: The value of percent of control at 10^−7 M was from 40% to 60% or the value of IC50 was from 50 nM to 200 nM.)
26 | CN(C)c1nc(N[C@H]2CC[C@@H](CNC(=O)NCc3ccccc3F)CC2)nc2ccccc12 [compound 499, N-[(cis-4-{[4-(dimethylamino)quinazolin-2-yl]amino}cyclohexyl)methyl]-N′-(2-fluorobenzyl)urea] | 2 (Class 2: The value of percent of control at 10^−7 M was from 40% to 60% or the value of IC50 was from 50 nM to 200 nM.)
27 | CN(C)c1nc(N[C@H]2CC[C@@H](CNC(=O)Nc3ccccc3I)CC2)nc2ccccc12 [compound 500, N-[(cis-4-{[4-(dimethylamino)quinazolin-2-yl]amino}cyclohexyl)methyl]-N′-(2-iodophenyl)urea] | 1 (Class 1: The value of percent of control at 10^−7 M was less than 40% or the value of IC50 was less than 50 nM.)
28 | Cc1cccc(C(C)C)c1NC(=O)NC[C@H]1CC[C@@H](Nc2nc(N(C)C)c3ccccc3n2)CC1 [compound 501] | 1 (Class 1: The value of percent of control at 10^−7 M was less than 40% or the value of IC50 was less than 50 nM.)
29 | CC(C)c1ccccc1NC(=O)NC[C@H]1CC[C@@H](Nc2nc(N(C)C)c3ccccc3n2)CC1 [compound 502, N-[(cis-4-{[4-(dimethylamino)quinazolin-2-yl]amino}cyclohexyl)methyl]-N′-(2-isopropylphenyl)urea] | 1 (Class 1: The value of percent of control at 10^−7 M was less than 40% or the value of IC50 was less than 50 nM.)
30 | COc1cc([N+](=O)[O-])ccc1NC(=O)NC[C@H]1CC[C@@H](Nc2nc(N(C)C)c3ccccc3n2)CC1 [compound 503] | 3 (Class 3: The value of percent of control at 10^−7 M was more than 60% or the value of IC50 was more than 200 nM.)
31 | COc1ccc(C)cc1NC(=O)NC[C@H]1CC[C@@H](Nc2nc(N(C)C)c3ccccc3n2)CC1 [compound 504] | 1 (Class 1: The value of percent of control at 10^−7 M was less than 40% or the value of IC50 was less than 50 nM.)
32 | COc1ccc([N+](=O)[O-])cc1NC(=O)NC[C@H]1CC[C@@H](Nc2nc(N(C)C)c3ccccc3n2)CC1 [compound 505, N-[(cis-4-{[4-(dimethylamino)quinazolin-2-yl]amino}cyclohexyl)methyl]-N′-(2-methoxy-5-nitrophenyl)urea] | 2 (Class 2: The value of percent of control at 10^−7 M was from 40% to 60% or the value of IC50 was from 50 nM to 200 nM.)
